Test results: ChEMBL document CHEMBL3046323, “Photosynthetic Electron Transport Inhibitory and Herbicidal Activities of 2-(N-Acylbenzylamino)-4-methyl-6-fluoroalkyl-1, 3, 5-triazine Derivatives” (J Pestic Sci, 2001)

Tests used:
[1] = system: Amaranthus blitum subsp. oleraceus; test: Herbicidal activity against Amaranthus blitum subsp. Oleraceus at 4 kg/ha treated as soil application at pre-emergence after 3 weeks; type: functional
[2] = system: Chenopodium album; test: Herbicidal activity against Chenopodium album at 4 kg/ha treated as soil application at pre-emergence after 3 weeks; type: functional
[3] = system: Echinochloa crus-galli var. crus-galli; test: Herbicidal activity against Echinochloa crus-galli var. crus-galli at 4 kg/ha treated as soil application at pre-emergence after 3 weeks; type: functional
[4] = system: Digitaria ciliaris; test: Herbicidal activity against Digitaria ciliaris at 4 kg/ha treated as soil application at pre-emergence after 3 weeks; type: functional
[5] = system: Persicaria longiseta; test: Herbicidal activity against Persicaria longiseta at 4 kg/ha treated as paddy application at pre-emergence after 3 weeks; type: functional
[6] = system: Chenopodium album; test: Herbicidal activity against Chenopodium album at 4 kg/ha treated as paddy application at pre-emergence after 3 weeks; type: functional
[7] = system: Digitaria ciliaris; test: Herbicidal activity against Digitaria ciliaris at 4 kg/ha treated as paddy application at pre-emergence after 3 weeks; type: functional
[8] = system: Echinochloa crus-galli var. crus-galli; test: Herbicidal activity against Echinochloa crus-galli var. crus-galli at 4 kg/ha treated as paddy application at pre-emergence after 3 weeks; type: functional
[9] = system: Pontederia vaginalis; test: Herbicidal activity against Monochoria vaginalis at 4 kg/ha treated as foliar application at post-emergence after 3 weeks; type: functional
[10] = system: Schoenoplectiella juncoides; test: Herbicidal activity against Schoenoplectiella juncoides var. Hotarui Ohwi at 4 kg/ha treated as foliar application at post-emergence after 3 weeks; type: functional
[11] = system: Echinochloa oryzicola; test: Herbicidal activity against Echinochloa oryzicola at 4 kg/ha treated as foliar application at post-emergence after 3 weeks; type: functional
[12] = system: Persicaria longiseta; test: Herbicidal activity against Persicaria longiseta at 4 kg/ha treated as soil application at pre-emergence after 3 weeks; type: functional
[13] = system: Rotala indica; test: Herbicidal activity against Rotala indica at 4 kg/ha treated as foliar application at post-emergence after 3 weeks; type: functional
[14] = Inhibition of photosynthetic electron transport in Spinacia oleracea leaf thylakoids assessed as oxygen formation

SMILES | Activity [1] | Activity [2] | Activity [3] | Activity [4] | Activity [5] | Activity [6] | Activity [7] | Activity [8] | Activity [9] | Activity [10] | Activity [11] | Activity [12] | Activity [13] | pI50 [14]
CCC(=O)N(Cc1ccccc1)c1nc(C)nc(C(F)(F)F)n1 | 91% | 91% | 76% | 91% | 100% | 100% | 76% | 76% | 26% | 0% | 0% | 91% | – | –
Cc1nc(NCc2ccc(Cl)cc2)nc(C(F)(F)F)n1 | – | 100% | 100% | 100% | 91% | 91% | 100% | 100% | 100% | 100% | 91% | – | 91% | 6.97
Cc1nc(NCc2ccccc2)nc(C(F)(F)F)n1 | – | 100% | 76% | 91% | 76% | 76% | 91% | 100% | 91% | 91% | 76% | – | 76% | –
Cc1nc(NCc2ccc(Cl)cc2)nc(C(F)F)n1 | – | – | – | – | – | – | – | – | – | – | – | – | – | 6.62
CCCc1nc(C)nc(N(C=O)Cc2ccc(Cl)cc2)n1 | 76% | 91% | 51% | 91% | 100% | 100% | 1% | 100% | 76% | 1% | 0% | 100% | 100% | –
Cc1nc(N(C=O)Cc2ccccc2)nc(C(F)(F)F)n1 | 76% | 100% | 76% | 76% | 100% | 100% | 76% | 76% | 26% | 0% | 0% | 91% | – | –
CC(=O)N(Cc1ccccc1)c1nc(C)nc(C(F)(F)F)n1 | – | 100% | 0% | 1% | 51% | 100% | 0% | 76% | 100% | 100% | 100% | – | – | –
CCCC(=O)N(Cc1ccccc1)c1nc(C)nc(C(F)(F)F)n1 | 76% | 76% | 51% | 51% | 1% | 100% | 51% | 100% | 51% | 0% | 0% | 51% | 26% | –
Cc1nc(N(Cc2ccccc2)C(=O)C(C)(C)C)nc(C(F)(F)F)n1 | – | – | 26% | 51% | – | – | – | – | – | – | – | – | – | –
Cc1nc(C(F)F)nc(N(C=O)Cc2ccc(Cl)cc2)n1 | 100% | 100% | 100% | 91% | 100% | 100% | 76% | 76% | 100% | 76% | 91% | 100% | 100% | –
Cc1nc(N(C=O)Cc2ccc(Cl)cc2)nc(C(F)(F)F)n1 | 91% | 100% | 100% | 91% | 100% | 100% | 91% | 100% | 100% | 91% | 91% | 100% | 100% | –
Cc1nc(N(C=O)Cc2ccc(Cl)cc2)nc(C(F)(F)C(F)(F)F)n1 | 100% | 91% | 100% | 100% | 100% | 100% | 76% | 100% | 100% | 100% | 76% | 100% | 100% | –
CCNc1nc(Cl)nc(NC(C)C)n1 [ATRAZINE] | – | – | – | – | 91% | 91% | – | – | 100% | 76% | 91% | – | – | –
CCNc1nc(Cl)nc(NCC)n1 [SIMAZINE] | 91% | 91% | 26% | 51% | – | – | – | – | – | – | – | – | – | 6.28
